# US5208251A, “Styryl pyrazoles, isoxazoles and analogs thereof having activity as 5-lipoxygenase inhibitors, pharmaceutical compositions and methods of use therefor” (Warner-Lambert Company, priority 1989, dated 1993)
# Tested on: cyclooxygenase
# Assay: ARBC whole cell cyclooxygenase assay (RBL-1 cells, PGF2α)
# Assay type: cell-based, rat
# Conditions: RBL-1 intact cell cyclooxygenase, PGF2α by RIA, A23187 5 μM
# Experimental: ARBL/ARBC Whole Cell 5-Lipoxygenase and Cyclooxygenase Assays
# The rat basophilic leukemia cell line (RBL-1) was obtained from the American Type Culture Collection (Rockville, Md.).
# Radioimmuno assay (RIA) kits of LTB4 and PGF2α were obtained from Amersham (Arlington Heights, IL) and Seragen (Boston, Mass.) respectively.
# All tissue culture media were obtained from GIBCO (Grand Island, N.Y.).
# RBL-1 cells were grown in culture (suspension) in Eagle's minimum essential medium supplemented with fetal bovine serum and 1:100 antibiotic-antimycotic mixture at 37° C. in an incubator supplied with air-5% carbon dioxide. Cells were harvested by centrifugation. They were washed with cold phosphate buffered saline pH 7.4 (PBS; NaCl, 7.1 g; Na2 HPO4, 1.15 g; KH2 PO4, 0.2 g; and KCl, 0.2 g/L). […] Calcium ionophore A23187 (5 μM) was added and cells were incubated for seven minutes at 37° C. The reaction was stopped by chilling the tubes in ice for ten minutes. Cells were separated by centrifugation and the supernatant was stored at -20° . Aliquots (100 μl) were analyzed for LTB4 and PGF2α using radioimmuno assay kits as provided by the supplier.
row,Structure (SMILES),IC50 [µM]
1,"CCOC(=O)Cn1nc(C)cc1/C=C/c1cc(OC)c(O)c(OC)c1 [Example 10D, (E)-5-[β-(4'-Hydroxy-3',5'-dimethoxyphenyl)ethenyl]-3-methyl-1H-pyrazole-1-acetic acid, ethyl ester]",> 30
2,"COc1cc(C=Cc2cc(C)nn2CC(=O)O)cc(OC)c1O [Example 10M, 5-[β-(4'-Hydroxy-3',5'-dimethoxyphenyl)ethenyl]-3-methyl-1H-pyrazole-1-acetic acid]",> 30
3,COC(=O)Cn1nc(C)cc1C=Cc1cc(C(C)(C)C)c(O)c(C(C)(C)C)c1 [Example 10G-2],> 30
4,"COC(=O)Cn1nc(C)cc1C=Cc1ccc(O)c(OC)c1 [Example 10I, 5-[β-(4'-Hydroxy-3'-methoxyphenyl)ethenyl]-3-methyl-1H-pyrazole-1-acetic acid methyl ester]",> 25
5,"COc1cc(C=Cc2cc(C)n(CC(=O)O)n2)cc(OC)c1O [Example 10N, 3-[β-(4'-Hydroxy-3',5'-dimethoxyphenyl)ethenyl]-5-methyl-1H-pyrazole-1-acetic acid]",> 30
6,"Cc1cc(C=Cc2cc(Cl)cc(Cl)c2O)on1 [Example 32J, 5-[β-(2'-Hydroxy-3',5'-dichlorophenyl)ethenyl]-3-methylisoxazole]",> 30
7,"Cc1cc(C=Cc2cc(C(C)(C)C)c(O)c(C(C)(C)C)c2)n(CC(=O)O)n1 [Example 10P, 5-[β-(4'-Hydroxy-3',5'-di-t-butylphenyl)ethenyl]-3-methyl-1H-pyrazole-1-acetic acid]",> 30
8,"Cc1cc(C(=Cc2cc(C)c(O)c(C)c2)C(=O)O)on1 [Example 52, 5-[α-carboxy-β-(4'-hydroxy-3',5'-dimethylphenyl)ethenyl]-3-methylisoxazole]",> 20
9,"COC(=O)C(=Cc1cc(OC)c(O)c(OC)c1)c1cc(C)no1 [Example 40, 5-[α-Carbomethoxy-β-(4'-hydroxy-3',5'-dimethoxyphenyl)ethenyl]-3-methylisoxazole]",> 25
10,"Cc1cc(C=Cc2cc(C(C)(C)C)c(O)c(C(C)(C)C)c2)nn1CC(=O)O [Example 10Q, 3-[β-(4'-Hydroxy-3',5'-di-t-butylphenyl)ethenyl]-5-methyl-1H-pyrazole-1-acetic acid]",> 30
11,COC(=O)Cn1nc(C=Cc2cc(C(C)(C)C)c(O)c(C(C)(C)C)c2)cc1C [Example 10G-1],> 30
12,"COC(=O)Cn1nc(C=Cc2cc(OC)c(O)c(OC)c2)cc1C [Example 10H, 3-[β-(4'-Hydroxy-3',5'-dimethoxyphenyl)ethenyl]-5-methyl-1H-pyrazole-1-acetic acid, methyl ester]",> 30
